Test system: VRE
Assay: Susceptibility of the subject's blood culture isolate (treatment history)
Assay type: cell-based
From the text: 11, 2013; the plan was for at least 8 weeks of antibiotic therapy.

Compound | susceptibility (2012 December) | susceptibility (2012 July)
CCCCCCCCCCNCCN[C@@]1(C)C[C@H](O[C@H]2[C@H](Oc3c4cc5cc3Oc3ccc(cc3Cl)[C@@H](O)[C@@H](NC(=O)[C@@H](CC(C)C)NC)C(=O)N[C@@H](CC(N)=O)C(=O)N[C@H]5C(=O)N[C@H]3C(=O)N[C@H](C(=O)N[C@H](C(=O)O)c5cc(O)c(CNCP(=O)(O)O)c(O)c5-c5cc3ccc5O)[C@H](O)c3ccc(c(Cl)c3)O4)O[C@H](CO)[C@@H](O)[C@@H]2O)O[C@@H](C)[C@H]1O [televancin] | resistant | 
CN(C)c1cc(NC(=O)CNC(C)(C)C)c(O)c2c1C[C@H]1C[C@H]3[C@H](N(C)C)C(O)=C(C(N)=O)C(=O)[C@@]3(O)C(O)=C1C2=O [tigecycline] |  | susceptible
